Test results published in patent publication US4387102A, “4-(N-(3',4'-Methylenedioxybenzylidene)-aminomethyl)cyclohex ane-1-carboxylic acid and derivatives thereof and pharmaceutical composition thereof” (Kureha Kagaku Kogyo Kabushiki Kaisha, priority 1980, dated 1983).

Experiments:
[1] = system: polymorphonuclear leukocytes; test: Inhibition of migration of polymorphonuclear leukocytes to the inflammatory region (Granuloma-CMC-Pouch method); format: in vivo, rat; conditions: single oral dose, male Donryu rats, present compound 100 mg/kg, indomethacin 10 mg/kg (footnote)
Protocol: Tests for inhibition of migration of polymorphonuclear leukocytes to the inflammatory region due to sodium 4-[N-(3',4'-methylenedioxybenzylidene)aminomethyl]cyclohexane-1-carboxylate were carried out following the method of Granuloma-CMC-Pouch (refer to Ishikawa et al. J. Pharmaceut. Soc. Jap., Vol. 88, page 1472, 1968).
Namely, after cutting the hair on the back of male rats (Donryu, body weight: 150 g), 5 ml of air was injected subcutaneously into the hair-cut region and further, 5 ml of aqueous 2% (W/V) solution of sodium carboxymethyl cellulose (CMC) at 37° C. was injected.
Specimens of the liquid (0.5 ml, each) effused into the pouch were collected at 3, 6 and 24 hours after 2% CMC solution were injected respectively and then the number of polymorphonuclear leukocytes in the specimen was counted after staining to determine the rate of inhibition of migration of the polymorpholeukocyte as compared to the number of the polymorpholeukocytes in the specimen collected from control animal to which the aqueous CMC solution was injected after air injection.
In this test, sodium 4-[N-(3',4'-methylenedioxybenzylidene)aminomethyl]cyclohexane-1-carboxylate was orally administered as a solution in aqueous physiological saline solution at a dose of 100 mg/kg at the time of injecting the solution of CMC, and as a control, […] at the time of injecting the solution of CMC.

female JCL-ICR mice = test: Acute oral toxicity test; format: in vivo, mouse; conditions: 3000 mg/kg, female JCL-ICR mice of five weeks
Protocol: (5-2) Acute oral toxicity test were carried out by orally administering aqueous solutions of sodium 4-[N-(3',4'-methylenedioxybenzylidene)aminomethyl]cyclohexane-1-carboxylate to groups of female JCL-ICR mice of five weeks after birth.

rabbit's platelets = test: Inhibition of blood platelet aggregation induced by sodium arachidonate (platelet aggregation tracer PAT 4A); format: cell-based; conditions: 400 micromols sodium arachidonate
Protocol: (5-1) Test for inhibition of platelet aggregation was carried out while using rabbit's platelets, an aqueous physiological saline solution of sodium 4-[N-([…]-methylenedioxybenzylidene)aminomethyl]cyclohexane-1-carboxylate and 400 micromols of sodium arachidonate as the aggregation agent in a platelet aggregation tracer PAT 4A (made by Niko Bioscience Company, Japan) as the testing apparatus.

[2] = 3 hours of injection of CMC, control 3.5 × 10^3
[3] = 6 hours of injection of CMC, control 5.9 × 10^3
[4] = 24 hours of injection of CMC, control 14.9 × 10^3

SMILES	R.I. (inhibitory rate of migration of polymorphonuclear leukocytes into the pouch as compared to control) ([1]; 3 hours of injection of CMC) [%]	Number of polymorphonuclear leukocytes [1, 2]	R.I. (inhibitory rate of migration of polymorphonuclear leukocytes into the pouch as compared to control) ([1]; 6 hours of injection of CMC) [%]	Number of polymorphonuclear leukocytes [1, 3]	R.I. (inhibitory rate of migration of polymorphonuclear leukocytes into the pouch as compared to control) ([1]; 24 hours of injection of CMC) [%]	Number of polymorphonuclear leukocytes [1, 4]	abnormality in acute oral toxicity test (female JCL-ICR mice)	percent of inhibition of the aggregation of the platelets by sodium arachidonate (rabbit's platelets; 500 micromols compound) [%]	percent of inhibition of the aggregation of the platelets by sodium arachidonate (rabbit's platelets; 1000 micromols compound) [%]	percent of inhibition of the aggregation of the platelets by sodium arachidonate (rabbit's platelets; 1500 micromols compound) [%]
COc1ccc2c(c1)c(CC(=O)O)c(C)n2C(=O)c1ccc(Cl)cc1 [Indomethacin, indomethacin, reference compound]	34	2.3 × 10^3 Number/mm^3	31	4.1 × 10^3 Number/mm^3	28	10.8 × 10^3 Number/mm^3				
O=C([O-])C1CCC(CN=Cc2ccc3c(c2)OCO3)CC1.[Na+] (stereo not shown) [Present compound, sodium 4-[N-(3',4'-methylenedioxybenzylidene)aminomethyl]cyclohexane-1-carboxylate]	46	1.9 × 10^3 Number/mm^3	54	2.7 × 10^3 Number/mm^3	32	10.1 × 10^3 Number/mm^3	no abnormality was found	30	75	100
